Tests used:
Assay type in all cases: functional
K562 = experiment: Cytotoxicity against human K562 cells assessed as cell growth at 10 uM after 48 hrs by sulforhodamine B assay relative to control; conditions: K562, 48 h, read-out: Activity
A498 = experiment: Cytotoxicity against human A498 cells assessed as cell growth at 10 uM after 48 hrs by sulforhodamine B assay relative to control; conditions: A498, 48 h, read-out: Activity
TK-10 [1] = experiment: Cytotoxicity against human TK10 cells assessed as cell growth at 0.01 uM after 48 hrs by sulforhodamine B assay relative to control; conditions: TK-10, 48 h, read-out: Activity
A549 = experiment: Cytotoxicity against human A549/ATCC cells assessed as cell growth at 100 uM after 48 hrs by sulforhodamine B assay relative to control; conditions: A549, 48 h, read-out: Activity
NCI/ADR-RES = experiment: Cytotoxicity against human NCI/ADR-RES cells assessed as cell growth at 0.01 uM after 48 hrs by sulforhodamine B assay relative to control; conditions: read-out: Activity
SK-MEL-28 = experiment: Cytotoxicity against human SK-MEL-28 cells assessed as cell growth at 1 uM after 48 hrs by sulforhodamine B assay relative to control; conditions: SK-MEL-28, 48 h, read-out: Activity
HL-60(TB) = experiment: Cytotoxicity against human HL-60(TB) cells assessed as cell growth at 0.01 uM after 48 hrs by sulforhodamine B assay relative to control; conditions: HL-60, 48 h, read-out: Activity
MDA-MB-468 [2] = experiment: Cytotoxicity against human MDA-MB-468 cells assessed as cell growth at 10 uM after 48 hrs by sulforhodamine B assay relative to control; conditions: MDA-MB-468, 48 h, read-out: Activity
COLO 205 = experiment: Cytotoxicity against human COLO205 cells assessed as cell growth at 10 uM after 48 hrs by sulforhodamine B assay relative to control; conditions: COLO 205, 48 h, read-out: Activity
SK-MEL-5 [3] = experiment: Cytotoxicity against human SK-MEL-5 cells assessed as cell growth at 1 uM after 48 hrs by sulforhodamine B assay relative to control; conditions: SK-MEL-5, 48 h, read-out: Activity
BT-549 = experiment: Cytotoxicity against human BT549 cells assessed as cell growth at 0.1 uM after 48 hrs by sulforhodamine B assay relative to control; conditions: BT-549, 48 h, read-out: Activity
HCT-15 = experiment: Cytotoxicity against human HCT15 cells assessed as cell growth at 0.01 uM after 48 hrs by sulforhodamine B assay relative to control; conditions: HCT-15, 48 h, read-out: Activity
OVCAR-8 [4] = experiment: Cytotoxicity against human OVCAR8 cells assessed as cell growth at 0.1 uM after 48 hrs by sulforhodamine B assay relative to control; conditions: OVCAR-8, 48 h, read-out: Activity
NCI-H23 = experiment: Cytotoxicity against human NCI-H23 cells assessed as cell growth at 0.1 uM after 48 hrs by sulforhodamine B assay relative to control; conditions: NCI-H23, 48 h, read-out: Activity
TK-10 [5] = experiment: Cytotoxicity against human TK10 cells assessed as cell growth at 1 uM after 48 hrs by sulforhodamine B assay relative to control; conditions: TK-10, 48 h, read-out: Activity
SK-OV-3 = experiment: Cytotoxicity against human SKOV3 cells assessed as cell growth at 10 uM after 48 hrs by sulforhodamine B assay relative to control; conditions: SK-OV-3, 48 h, read-out: Activity
OVCAR-8 [6] = experiment: Cytotoxicity against human OVCAR8 cells assessed as cell growth at 0.01 uM after 48 hrs by sulforhodamine B assay relative to control; conditions: OVCAR-8, 48 h, read-out: Activity
OVCAR-5 [7] = experiment: Cytotoxicity against human OVCAR5 cells assessed as cell growth at 1 uM after 48 hrs by sulforhodamine B assay relative to control; conditions: OVCAR-5, 48 h, read-out: Activity
UACC-62 = experiment: Cytotoxicity against human UACC62 cells assessed as cell growth at 0.01 uM after 48 hrs by sulforhodamine B assay relative to control; conditions: UACC-62, 48 h, read-out: Activity
OVCAR-4 = experiment: Cytotoxicity against human OVCAR4 cells assessed as cell growth at 0.01 uM after 48 hrs by sulforhodamine B assay relative to control; conditions: OVCAR-4, 48 h, read-out: Activity
SF-539 = experiment: Cytotoxicity against human SF539 cells assessed as growth inhibition after 48 hrs by sulforhodamine B assay; conditions: SF-539, 48 h
IGROV-1 = experiment: Cytotoxicity against human IGROV1 cells assessed as cell growth at 100 uM after 48 hrs by sulforhodamine B assay relative to control; conditions: IGROV-1, 48 h, read-out: Activity
Hs-578T = experiment: Cytotoxicity against human Hs 578T cells assessed as cell growth at 10 uM after 48 hrs by sulforhodamine B assay relative to control; conditions: read-out: Activity
MDA-MB-468 [8] = experiment: Cytotoxicity against human MDA-MB-468 cells assessed as cell growth at 1 uM after 48 hrs by sulforhodamine B assay relative to control; conditions: MDA-MB-468, 48 h, read-out: Activity
OVCAR-3 [9] = experiment: Cytotoxicity against human OVCAR3 cells assessed as cell growth at 1 uM after 48 hrs by sulforhodamine B assay relative to control; conditions: OVCAR-3, 48 h, read-out: Activity
NCI-H322M = experiment: Cytotoxicity against human NCI-H322M cells assessed as cell growth at 1 uM after 48 hrs by sulforhodamine B assay relative to control; conditions: read-out: Activity
UO-31 = experiment: Cytotoxicity against human UO31 cells assessed as cell growth at 1 uM after 48 hrs by sulforhodamine B assay relative to control; conditions: UO-31, 48 h, read-out: Activity
OVCAR-3 [10] = experiment: Cytotoxicity against human OVCAR3 cells assessed as cell growth at 10 uM after 48 hrs by sulforhodamine B assay relative to control; conditions: OVCAR-3, 48 h, read-out: Activity
SK-MEL-5 [11] = experiment: Cytotoxicity against human SK-MEL-5 cells assessed as growth inhibition after 48 hrs by sulforhodamine B assay; conditions: SK-MEL-5, 48 h
RXF 393 = experiment: Cytotoxicity against human RXF393 cells assessed as cell growth at 100 uM after 48 hrs by sulforhodamine B assay relative to control; conditions: RXF 393, 48 h, read-out: Activity
MOLT-4 = experiment: Cytotoxicity against human MOLT4 cells assessed as cell growth at 0.1 uM after 48 hrs by sulforhodamine B assay relative to control; conditions: MOLT-4, 48 h, read-out: Activity
OVCAR-5 [12] = experiment: Cytotoxicity against human OVCAR5 cells assessed as cell growth at 0.1 uM after 48 hrs by sulforhodamine B assay relative to control; conditions: OVCAR-5, 48 h, read-out: Activity
OVCAR-3 [13] = experiment: Cytotoxicity against human OVCAR3 cells assessed as cell growth at 100 uM after 48 hrs by sulforhodamine B assay relative to control; conditions: OVCAR-3, 48 h, read-out: Activity
HCC 2998 = experiment: Cytotoxicity against human HCC2998 cells assessed as cell growth at 0.01 uM after 48 hrs by sulforhodamine B assay relative to control; conditions: HCC 2998, 48 h, read-out: Activity
RPMI-8226 = experiment: Cytotoxicity against human RPMI8226 cells assessed as cell growth at 0.1 uM after 48 hrs by sulforhodamine B assay relative to control; conditions: RPMI-8226, 48 h, read-out: Activity

## COc1ccc(-c2cc(/C=C/C(=O)c3ccc(OC)c(OC)c3)[nH]n2)cc1
K562
  growth at 10 µM: 1%
A498
  growth at 10 µM: -57%
TK-10 [1]
  growth at 0.01 µM: 100%
A549
  growth at 100 µM: -45%
NCI/ADR-RES
  growth at 0.01 µM: 102%
SK-MEL-28
  growth at 1 µM: 90%
HL-60(TB)
  growth at 0.01 µM: 102%
MDA-MB-468 [2]
  growth at 10 µM: -69%
COLO 205
  growth at 10 µM: -89%
SK-MEL-5 [3]
  growth at 1 µM: 88%
BT-549
  growth at 0.1 µM: 105%
HCT-15
  growth at 0.01 µM: 95%
OVCAR-8 [4]
  growth at 0.1 µM: 89%
NCI-H23
  growth at 0.1 µM: 101%
TK-10 [5]
  growth at 1 µM: 103%
SK-OV-3
  growth at 10 µM: 29%
OVCAR-8 [6]
  growth at 0.01 µM: 93%
OVCAR-5 [7]
  growth at 1 µM: 77%
UACC-62
  growth at 0.01 µM: 99%
OVCAR-4
  growth at 0.01 µM: 88%
SF-539
  GI50: 1270 nM
  LC50 (concentration killing 50% of cells): 5380 nM
  TGI: 2610 nM
IGROV-1
  growth at 100 µM: -84%
Hs-578T
  growth at 10 µM: 23%
MDA-MB-468 [8]
  growth at 1 µM: 61%
OVCAR-3 [9]
  growth at 1 µM: 62%
NCI-H322M
  growth at 1 µM: 72%
UO-31
  growth at 1 µM: 61%
OVCAR-3 [10]
  growth at 10 µM: -95%
SK-MEL-5 [11]
  GI50: 1770 nM
  LC50 (concentration killing 50% of cells): 7830 nM
  TGI: 3720 nM
RXF 393
  growth at 100 µM: -92%
MOLT-4
  growth at 0.1 µM: 108%
OVCAR-5 [12]
  growth at 0.1 µM: 89%
OVCAR-3 [13]
  growth at 100 µM: -96%
HCC 2998
  growth at 0.01 µM: 100%
RPMI-8226
  growth at 0.1 µM: 93%

## COc1ccc(C(=O)/C=C/c2cc(-c3ccc(OC)c(OC)c3)n[nH]2)cc1OC
K562
  growth at 10 µM: 3%
A498
  growth at 10 µM: -62%
TK-10 [1]
  growth at 0.01 µM: 98%
A549
  growth at 100 µM: -19%
NCI/ADR-RES
  growth at 0.01 µM: 104%
SK-MEL-28
  growth at 1 µM: 81%
HL-60(TB)
  growth at 0.01 µM: 101%
MDA-MB-468 [2]
  growth at 10 µM: -80%
COLO 205
  growth at 10 µM: -84%
SK-MEL-5 [3]
  growth at 1 µM: 86%
BT-549
  growth at 0.1 µM: 89%
HCT-15
  growth at 0.01 µM: 96%
OVCAR-8 [4]
  growth at 0.1 µM: 98%
NCI-H23
  growth at 0.1 µM: 103%
TK-10 [5]
  growth at 1 µM: 106%
SK-OV-3
  growth at 10 µM: 9%
OVCAR-8 [6]
  growth at 0.01 µM: 99%
OVCAR-5 [7]
  growth at 1 µM: 76%
UACC-62
  growth at 0.01 µM: 95%
OVCAR-4
  growth at 0.01 µM: 106%
SF-539
  GI50: 525 nM
  TGI: 2540 nM
IGROV-1
  growth at 100 µM: -2%
Hs-578T
  growth at 10 µM: 23%
MDA-MB-468 [8]
  growth at 1 µM: 55%
OVCAR-3 [9]
  growth at 1 µM: 88%
NCI-H322M
  growth at 1 µM: 94%
UO-31
  growth at 1 µM: 72%
OVCAR-3 [10]
  growth at 10 µM: -43%
SK-MEL-5 [11]
  GI50: 1580 nM
  TGI: 2960 nM
RXF 393
  growth at 100 µM: -90%
MOLT-4
  growth at 0.1 µM: 101%
OVCAR-5 [12]
  growth at 0.1 µM: 94%
OVCAR-3 [13]
  growth at 100 µM: -64%
HCC 2998
  growth at 0.01 µM: 107%
RPMI-8226
  growth at 0.1 µM: 91%

## COc1ccc(C(=O)/C=C/c2cc(-c3cc(OC)c(OC)c(OC)c3)n[nH]2)cc1OC
K562
  growth at 10 µM: -13%
A498
  growth at 10 µM: -87%
TK-10 [1]
  growth at 0.01 µM: 85%
A549
  growth at 100 µM: -78%
NCI/ADR-RES
  growth at 0.01 µM: 99%
SK-MEL-28
  growth at 1 µM: 96%
HL-60(TB)
  growth at 0.01 µM: 103%
MDA-MB-468 [2]
  growth at 10 µM: -87%
COLO 205
  growth at 10 µM: -93%
SK-MEL-5 [3]
  growth at 1 µM: 91%
BT-549
  growth at 0.1 µM: 90%
HCT-15
  growth at 0.01 µM: 97%
OVCAR-8 [4]
  growth at 0.1 µM: 92%
NCI-H23
  growth at 0.1 µM: 94%
TK-10 [5]
  growth at 1 µM: 71%
SK-OV-3
  growth at 10 µM: -12%
OVCAR-8 [6]
  growth at 0.01 µM: 97%
OVCAR-5 [7]
  growth at 1 µM: 86%
UACC-62
  growth at 0.01 µM: 98%
OVCAR-4
  growth at 0.01 µM: 95%
SF-539
  GI50: 1270 nM
  LC50 (concentration killing 50% of cells): 5310 nM
  TGI: 2600 nM
IGROV-1
  growth at 100 µM: -73%
Hs-578T
  growth at 10 µM: -9%
MDA-MB-468 [8]
  growth at 1 µM: 45%
OVCAR-3 [9]
  growth at 1 µM: 91%
NCI-H322M
  growth at 1 µM: 83%
UO-31
  growth at 1 µM: 67%
OVCAR-3 [10]
  growth at 10 µM: -91%
SK-MEL-5 [11]
  LC50 (concentration killing 50% of cells): 5590 nM
  TGI: 3030 nM
RXF 393
  growth at 100 µM: -98%
MOLT-4
  growth at 0.1 µM: 98%
OVCAR-5 [12]
  growth at 0.1 µM: 88%
OVCAR-3 [13]
  growth at 100 µM: -84%
HCC 2998
  growth at 0.01 µM: 93%
RPMI-8226
  growth at 0.1 µM: 79%

— ChEMBL document CHEMBL4138123, “Design, synthesis and biological evaluation of novel pyrazolochalcones as potential modulators of PI3K/Akt/mTOR pathway and inducers of apoptosis in breast cancer cells” (Eur J Med Chem, 2017)
